Laboratory results published in the NIST ThermoML archive (doi:10.1021/je500886a).
± gives the expanded uncertainty stated by the source.

Assay: mn = molality of the nth substance listed, in mol/kg
Conditions: 101 kPa, Liquid

Compound: O=C[C@H](O)[C@@H](O)[C@H](O)[C@H](O)CO [D-glucose] + O
- viscosity (288.15 K, m1 = 0.0513): 1.167 ± 0.022 mPa·s
- mass density (288.15 K, m1 = 0.05146): 1002.66 ± 0.23 kg/m3
- viscosity (288.15 K, m1 = 0.06904): 1.176 ± 0.022 mPa·s
- mass density (288.15 K, m1 = 0.07233): 1004.08 ± 0.24 kg/m3
- viscosity (288.15 K, m1 = 0.09026): 1.188 ± 0.022 mPa·s
- mass density (288.15 K, m1 = 0.09244): 1005.44 ± 0.24 kg/m3
- viscosity (288.15 K, m1 = 0.1114): 1.2 ± 0.022 mPa·s
- viscosity (288.15 K, m1 = 0.1294): 1.212 ± 0.022 mPa·s
- viscosity (288.15 K, m1 = 0.149): 1.219 ± 0.022 mPa·s
- viscosity (298.15 K, m1 = 0.0513): 0.911 ± 0.017 mPa·s
- mass density (298.15 K, m1 = 0.05146): 1000.54 ± 0.23 kg/m3
- viscosity (298.15 K, m1 = 0.06904): 0.918 ± 0.018 mPa·s
- mass density (298.15 K, m1 = 0.07233): 1001.94 ± 0.23 kg/m3
- viscosity (298.15 K, m1 = 0.09026): 0.926 ± 0.018 mPa·s
- mass density (298.15 K, m1 = 0.09244): 1003.27 ± 0.24 kg/m3
- mass density (298.15 K, m1 = 0.1096): 1004.41 ± 0.24 kg/m3
- viscosity (298.15 K, m1 = 0.1114): 0.935 ± 0.018 mPa·s
- mass density (298.15 K, m1 = 0.1241): 1005.36 ± 0.24 kg/m3
- viscosity (298.15 K, m1 = 0.1294): 0.942 ± 0.018 mPa·s
- viscosity (298.15 K, m1 = 0.149): 0.951 ± 0.018 mPa·s
- viscosity (308.15 K, m1 = 0.0513): 0.735 ± 0.014 mPa·s
- viscosity (308.15 K, m1 = 0.06904): 0.741 ± 0.015 mPa·s
- mass density (308.15 K, m1 = 0.07233): 998.9 ± 0.23 kg/m3
- viscosity (308.15 K, m1 = 0.09026): 0.747 ± 0.015 mPa·s
- mass density (308.15 K, m1 = 0.09244): 1000.22 ± 0.23 kg/m3
- mass density (308.15 K, m1 = 0.1096): 1001.34 ± 0.23 kg/m3
- viscosity (308.15 K, m1 = 0.1114): 0.755 ± 0.015 mPa·s
- mass density (308.15 K, m1 = 0.1241): 1002.28 ± 0.23 kg/m3
- viscosity (308.15 K, m1 = 0.1294): 0.759 ± 0.015 mPa·s
- mass density (308.15 K, m1 = 0.1456): 1003.66 ± 0.24 kg/m3
- viscosity (308.15 K, m1 = 0.149): 0.764 ± 0.015 mPa·s
- viscosity (318.15 K, m1 = 0.0513): 0.609 ± 0.012 mPa·s
- mass density (318.15 K, m1 = 0.05146): 993.66 ± 0.24 kg/m3
- viscosity (318.15 K, m1 = 0.06904): 0.613 ± 0.012 mPa·s
- mass density (318.15 K, m1 = 0.07233): 995.03 ± 0.24 kg/m3
- viscosity (318.15 K, m1 = 0.09026): 0.618 ± 0.013 mPa·s
- mass density (318.15 K, m1 = 0.09244): 996.33 ± 0.23 kg/m3
- mass density (318.15 K, m1 = 0.1096): 997.44 ± 0.23 kg/m3
- viscosity (318.15 K, m1 = 0.1114): 0.623 ± 0.013 mPa·s
- mass density (318.15 K, m1 = 0.1241): 998.37 ± 0.23 kg/m3
- viscosity (318.15 K, m1 = 0.1294): 0.627 ± 0.013 mPa·s
- mass density (318.15 K, m1 = 0.1456): 999.74 ± 0.23 kg/m3
- viscosity (318.15 K, m1 = 0.149): 0.632 ± 0.013 mPa·s

Compound: O=C[C@H](O)[C@@H](O)[C@H](O)CO [D-xylose] + O
- mass density (288.15 K, m1 = 0.0491): 1001.82 ± 0.23 kg/m3
- viscosity (288.15 K, m1 = 0.04924): 1.161 ± 0.022 mPa·s
- viscosity (288.15 K, m1 = 0.06784): 1.167 ± 0.022 mPa·s
- mass density (288.15 K, m1 = 0.07084): 1002.99 ± 0.24 kg/m3
- mass density (288.15 K, m1 = 0.08985): 1004.02 ± 0.24 kg/m3
- viscosity (288.15 K, m1 = 0.09005): 1.176 ± 0.022 mPa·s
- viscosity (288.15 K, m1 = 0.1038): 1.183 ± 0.022 mPa·s
- mass density (288.15 K, m1 = 0.1144): 1005.32 ± 0.24 kg/m3
- viscosity (288.15 K, m1 = 0.1285): 1.19 ± 0.022 mPa·s
- mass density (288.15 K, m1 = 0.1303): 1006.16 ± 0.24 kg/m3
- mass density (288.15 K, m1 = 0.1485): 1007.12 ± 0.24 kg/m3
- viscosity (288.15 K, m1 = 0.151): 1.201 ± 0.022 mPa·s
- mass density (298.15 K, m1 = 0.0491): 999.72 ± 0.23 kg/m3
- viscosity (298.15 K, m1 = 0.04924): 0.904 ± 0.017 mPa·s
- viscosity (298.15 K, m1 = 0.06784): 0.911 ± 0.017 mPa·s
- mass density (298.15 K, m1 = 0.07084): 1000.89 ± 0.23 kg/m3
- mass density (298.15 K, m1 = 0.08985): 1001.9 ± 0.23 kg/m3
- viscosity (298.15 K, m1 = 0.09005): 0.917 ± 0.018 mPa·s
- viscosity (298.15 K, m1 = 0.1038): 0.921 ± 0.018 mPa·s
- mass density (298.15 K, m1 = 0.1144): 1003.21 ± 0.24 kg/m3
- viscosity (298.15 K, m1 = 0.1285): 0.929 ± 0.018 mPa·s
- mass density (298.15 K, m1 = 0.1303): 1004.04 ± 0.24 kg/m3
- mass density (298.15 K, m1 = 0.1485): 1005 ± 0.24 kg/m3
- viscosity (298.15 K, m1 = 0.151): 0.936 ± 0.018 mPa·s
- mass density (308.15 K, m1 = 0.0491): 996.71 ± 0.23 kg/m3
- viscosity (308.15 K, m1 = 0.04924): 0.73 ± 0.014 mPa·s
- viscosity (308.15 K, m1 = 0.06784): 0.735 ± 0.014 mPa·s
- mass density (308.15 K, m1 = 0.07084): 997.87 ± 0.23 kg/m3
- mass density (308.15 K, m1 = 0.08985): 998.88 ± 0.23 kg/m3
- viscosity (308.15 K, m1 = 0.09005): 0.74 ± 0.015 mPa·s
- viscosity (308.15 K, m1 = 0.1038): 0.743 ± 0.015 mPa·s
- mass density (308.15 K, m1 = 0.1144): 1000.16 ± 0.23 kg/m3
- viscosity (308.15 K, m1 = 0.1285): 0.749 ± 0.015 mPa·s
- mass density (308.15 K, m1 = 0.1303): 1000.99 ± 0.23 kg/m3
- mass density (308.15 K, m1 = 0.1485): 1001.94 ± 0.23 kg/m3
- viscosity (308.15 K, m1 = 0.151): 0.754 ± 0.015 mPa·s
- mass density (318.15 K, m1 = 0.0491): 992.87 ± 0.24 kg/m3
- viscosity (318.15 K, m1 = 0.04924): 0.605 ± 0.012 mPa·s
- viscosity (318.15 K, m1 = 0.06784): 0.609 ± 0.012 mPa·s
- mass density (318.15 K, m1 = 0.07084): 994.02 ± 0.24 kg/m3
- mass density (318.15 K, m1 = 0.08985): 995.03 ± 0.24 kg/m3
- viscosity (318.15 K, m1 = 0.09005): 0.612 ± 0.012 mPa·s
- viscosity (318.15 K, m1 = 0.1038): 0.615 ± 0.013 mPa·s
- mass density (318.15 K, m1 = 0.1144): 996.31 ± 0.23 kg/m3
- viscosity (318.15 K, m1 = 0.1285): 0.62 ± 0.013 mPa·s
- mass density (318.15 K, m1 = 0.1303): 997.13 ± 0.23 kg/m3
- mass density (318.15 K, m1 = 0.1485): 998.07 ± 0.23 kg/m3
- viscosity (318.15 K, m1 = 0.151): 0.624 ± 0.013 mPa·s

Compound: O=C(CO)[C@@H](O)[C@H](O)[C@@H](O)CO [L-sorbose] + O
- viscosity (288.15 K, m1 = 0.04909): 1.162 ± 0.022 mPa·s
- mass density (288.15 K, m1 = 0.05105): 1002.68 ± 0.35 kg/m3
- mass density (288.15 K, m1 = 0.06584): 1003.7 ± 0.36 kg/m3
- viscosity (288.15 K, m1 = 0.0704): 1.173 ± 0.022 mPa·s
- viscosity (288.15 K, m1 = 0.08456): 1.182 ± 0.022 mPa·s
- mass density (288.15 K, m1 = 0.08815): 1005.22 ± 0.36 kg/m3
- viscosity (288.15 K, m1 = 0.1091): 1.195 ± 0.023 mPa·s
- viscosity (288.15 K, m1 = 0.1289): 1.206 ± 0.023 mPa·s
- mass density (288.15 K, m1 = 0.1505): 1009.38 ± 0.37 kg/m3
- viscosity (288.15 K, m1 = 0.1507): 1.216 ± 0.023 mPa·s
- viscosity (298.15 K, m1 = 0.04909): 0.907 ± 0.018 mPa·s
- mass density (298.15 K, m1 = 0.05105): 1000.57 ± 0.35 kg/m3
- mass density (298.15 K, m1 = 0.06584): 1001.57 ± 0.35 kg/m3
- viscosity (298.15 K, m1 = 0.0704): 0.916 ± 0.018 mPa·s
- viscosity (298.15 K, m1 = 0.08456): 0.923 ± 0.018 mPa·s
- mass density (298.15 K, m1 = 0.08815): 1003.06 ± 0.36 kg/m3
- mass density (298.15 K, m1 = 0.1073): 1004.33 ± 0.36 kg/m3
- viscosity (298.15 K, m1 = 0.1091): 0.931 ± 0.018 mPa·s
- viscosity (298.15 K, m1 = 0.1507): 0.947 ± 0.018 mPa·s
- viscosity (308.15 K, m1 = 0.04909): 0.733 ± 0.015 mPa·s
- mass density (308.15 K, m1 = 0.06584): 998.56 ± 0.35 kg/m3
- viscosity (308.15 K, m1 = 0.0704): 0.738 ± 0.015 mPa·s
- mass density (308.15 K, m1 = 0.08815): 1000.04 ± 0.35 kg/m3
- mass density (308.15 K, m1 = 0.1073): 1001.3 ± 0.35 kg/m3
- viscosity (308.15 K, m1 = 0.1091): 0.75 ± 0.015 mPa·s
- viscosity (308.15 K, m1 = 0.1289): 0.756 ± 0.015 mPa·s
- mass density (308.15 K, m1 = 0.1317): 1002.89 ± 0.35 kg/m3
- mass density (308.15 K, m1 = 0.1505): 1004.1 ± 0.36 kg/m3
- viscosity (308.15 K, m1 = 0.1507): 0.762 ± 0.015 mPa·s
- viscosity (318.15 K, m1 = 0.04909): 0.606 ± 0.013 mPa·s
- mass density (318.15 K, m1 = 0.05105): 993.72 ± 0.36 kg/m3
- mass density (318.15 K, m1 = 0.06584): 994.7 ± 0.36 kg/m3
- viscosity (318.15 K, m1 = 0.0704): 0.611 ± 0.013 mPa·s
- viscosity (318.15 K, m1 = 0.08456): 0.615 ± 0.013 mPa·s
- mass density (318.15 K, m1 = 0.08815): 996.17 ± 0.35 kg/m3
- mass density (318.15 K, m1 = 0.1073): 997.41 ± 0.35 kg/m3
- viscosity (318.15 K, m1 = 0.1091): 0.62 ± 0.013 mPa·s
- viscosity (318.15 K, m1 = 0.1289): 0.624 ± 0.013 mPa·s
- mass density (318.15 K, m1 = 0.1317): 998.98 ± 0.35 kg/m3
- mass density (318.15 K, m1 = 0.1505): 1000.18 ± 0.35 kg/m3
- viscosity (318.15 K, m1 = 0.1507): 0.629 ± 0.013 mPa·s
